{
  "source": "paper PMC9673926",
  "about": "“Nucleotide binding as an allosteric regulatory mechanism for Akkermansia muciniphila β-N-acetylhexosaminidase Am2136” (Gut Microbes, 2022)",
  "test_in_all_cases": "Nucleotide binding affinity by intrinsic fluorescence, mutant",
  "set-up_in_all_cases": "The coding region (residue Q20-L756) of Am2136 without signal peptide was based on UniProt; 6XHis (N); made in house; host or cells: E. coli BL21 (DE3)",
  "key": {"[1]": {"molecular_target": "T1, Am2136 P595A+H597A (Akkermansia muciniphila, UniProt B2UPR7, H597A/P595A)", "T1 sequence (B2UPR7 20-756 P595A/H597A)": "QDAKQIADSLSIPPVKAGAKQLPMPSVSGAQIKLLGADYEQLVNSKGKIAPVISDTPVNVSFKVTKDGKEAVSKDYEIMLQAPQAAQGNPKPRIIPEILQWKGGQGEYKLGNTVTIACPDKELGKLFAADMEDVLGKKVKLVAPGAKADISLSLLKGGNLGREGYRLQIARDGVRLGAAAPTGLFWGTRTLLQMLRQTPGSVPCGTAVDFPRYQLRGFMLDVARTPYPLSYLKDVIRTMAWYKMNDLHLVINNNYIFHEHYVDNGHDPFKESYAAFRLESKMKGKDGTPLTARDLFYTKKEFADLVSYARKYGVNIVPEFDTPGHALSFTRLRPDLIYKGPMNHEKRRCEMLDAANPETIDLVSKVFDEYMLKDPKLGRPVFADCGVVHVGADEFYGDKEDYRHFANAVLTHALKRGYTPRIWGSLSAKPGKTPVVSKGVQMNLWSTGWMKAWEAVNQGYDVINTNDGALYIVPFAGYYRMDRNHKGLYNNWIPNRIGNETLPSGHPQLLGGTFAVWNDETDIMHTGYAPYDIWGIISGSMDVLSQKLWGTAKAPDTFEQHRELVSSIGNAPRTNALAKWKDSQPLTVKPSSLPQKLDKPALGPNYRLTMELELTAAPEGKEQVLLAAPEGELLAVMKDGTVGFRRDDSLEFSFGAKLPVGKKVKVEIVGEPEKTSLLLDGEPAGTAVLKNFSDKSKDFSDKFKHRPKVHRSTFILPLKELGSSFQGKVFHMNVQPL", "protocol": "(§1) The nucleotide binding ability was determined on Fluorescence Spectrometer Duetta (HORIBA) by measuring the change of peak intensity. The fluorescence was excited at 286 nm and emitted at 336 nm. And the measurement was processed under 400 V voltage with 2.5 nm excitation slit and 5 nm emission slit. The 120 μL reaction mixture contains 0–550 μM nucleotide, 5 μM proteins, 25 mM Tris pH 8.0 and 150 mM NaCl. The sample was incubated at 4°C for 5 min before testing."}, "[2]": {"molecular_target": "T2, Am2136 R592A (Akkermansia muciniphila, UniProt B2UPR7, R592A)", "T2 sequence (B2UPR7 20-756 R592A)": "T1 sequence (B2UPR7 20-756 P595A/H597A) with R573A, A576P, A578H", "protocol": "as §1"}, "[3]": {"molecular_target": "T3, Am2136 Y327F+Y331F (Akkermansia muciniphila, UniProt B2UPR7, Y327F/Y331F)", "T3 sequence (B2UPR7 20-756 Y327F/Y331F)": "T1 sequence (B2UPR7 20-756 P595A/H597A) with Y308F, Y312F, A576P, A578H", "protocol": "as §1"}},
  "note": "Where a chain is given by its changes, count along the chain named.",
  "data": [
    {"smiles": "Nc1nc2c(ncn2[C@@H]2O[C@H](COP(=O)(O)OP(=O)(O)O)[C@@H](O)[C@H]2O)c(=O)[nH]1", "note": "[GDP]", "values": [
      {"measurement": "Kd", "setting": "[1]", "value": "140 ± 4.26", "unit": "µM"},
      {"measurement": "Kd", "setting": "[2]", "value": "120 ± 5.82", "unit": "µM"},
      {"measurement": "Kd", "setting": "[3]", "value": "175 ± 13.7", "unit": "µM"}
    ]}
  ]
}
